Molecules are shown by their SMILES. pIC50: −log10 of the molar value. Counter-ions that a name gives are not always drawn.

For this assay, the target named is human LOXL2 (Homo sapiens (Human), UniProt Q9Y4K0). Put plainly: Human LOXL2 amine oxidase activity assay (Amplex Red). It counts as biochemical. Conditions: concentrated conditioned media from CHO cells stably expressing human LOXL2; 2 h at 37° C. with compound; DAP substrate. The method, then: Example B-1: Human LOXL2 Amine Oxidase Activity Assay
Chain of human LOXL2 (Q9Y4K0 26-774): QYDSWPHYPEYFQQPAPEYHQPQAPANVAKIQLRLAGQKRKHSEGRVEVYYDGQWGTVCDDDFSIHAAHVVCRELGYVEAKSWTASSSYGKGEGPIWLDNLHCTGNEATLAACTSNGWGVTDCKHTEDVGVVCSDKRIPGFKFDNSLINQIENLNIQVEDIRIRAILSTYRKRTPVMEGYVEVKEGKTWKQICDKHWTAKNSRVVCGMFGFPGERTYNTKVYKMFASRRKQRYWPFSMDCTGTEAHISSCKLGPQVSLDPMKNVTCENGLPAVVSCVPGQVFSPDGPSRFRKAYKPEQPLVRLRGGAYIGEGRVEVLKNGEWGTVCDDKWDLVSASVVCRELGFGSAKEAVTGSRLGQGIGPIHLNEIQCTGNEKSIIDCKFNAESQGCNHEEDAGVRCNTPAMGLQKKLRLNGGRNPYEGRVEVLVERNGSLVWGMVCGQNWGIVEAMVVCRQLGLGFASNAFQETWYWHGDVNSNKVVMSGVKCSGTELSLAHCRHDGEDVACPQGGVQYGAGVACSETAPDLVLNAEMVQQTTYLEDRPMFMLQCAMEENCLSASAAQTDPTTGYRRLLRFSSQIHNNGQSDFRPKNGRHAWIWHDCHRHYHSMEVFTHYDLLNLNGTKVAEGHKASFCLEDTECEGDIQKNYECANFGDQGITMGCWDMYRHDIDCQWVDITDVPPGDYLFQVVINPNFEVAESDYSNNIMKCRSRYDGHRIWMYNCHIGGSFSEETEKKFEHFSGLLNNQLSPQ
LOXL2 amine oxidase activity is evaluated by measuring Amplex Red fluorescence using 10-20× concentrated conditioned media from CHO cells stably expressing human LOXL2. To assay for amine oxidase activity, 10 μL of the concentrated conditioned media is incubated with 2 μL of test compound in DMSO and 73 μL Assay Buffer (50 mM Borate Buffer, pH8) for 2 h at 37° C. After the 2 h incubation, 5 ul of 10 mM 1,5-Diaminopentane (DAP) diluted in Assay Buffer and 10 μl of Amplex Red Mix (8.5 μl Assay Buffer+0.5 μl of 10 mM Amplex Red+1 μl of 500 U/ml Horseradish Peroxidase) are added and the plate mixed and immediately placed on the FlexStaion for fluorescence measurements. Fluorescence is read in kinetic mode every 2 min for 1 hour at excitation=544 and emission=590. The amine oxidase activity is calculated from the slope of the linear portion of the curve.
In general, pIC50 refers to the IC50 on a negative log10 scale, so that one unit is a factor of ten. Consider `NCc1cc(Oc2cccc(C(=O)NCCN3CCOC3=O)c2)nc(C(F)(F)F)c1` [Compound 1-28, 3-((4-(Aminomethyl)-6-(trifluoromethyl)pyridin-2-yl)oxy)-N-(2-(2-oxooxazolidin-3-yl)ethyl)benzamide], for which the negative-log IC50 (pIC50) was over 6.52.

Consider `NCc1cc(Oc2cccc(C(=O)NCc3nn[nH]n3)c2)nc(C(F)(F)F)c1` [Compound 1-13, N-((2H-Tetrazol-5-yl)methyl)-3-((4-(aminomethyl)-6-(trifluoromethyl)pyridin-2-yl)oxy)benzamide hydrochloride], for which the pIC50 was over 6.52.

For `CN(CCO)C(=O)c1cccc(Oc2cc(CN)cc(C(F)(F)F)n2)c1` [Compound 1-202, 3-((4-(Aminomethyl)-6-(trifluoromethyl)pyridin-2-yl)oxy)-N-(2-hydroxyethyl)-N-methylbenzamide hydrochloride], the pIC50 was over 6.52.

Consider `NCc1cc(Oc2cccc(C(=O)Nc3cncnc3)c2)nc(C(F)(F)F)c1` [Compound 1-226, 3-((4-(Aminomethyl)-6-(trifluoromethyl)pyridin-2-yl)oxy)-N-(pyrimidin-5-yl)benzamide hydrochloride], for which the pIC50 is over 6.52.

Take `NCc1cc(Oc2cccc(C(=O)Nc3nnco3)c2)nc(C(F)(F)F)c1` [Compound 1-228, 3-((4-(Aminomethyl)-6-(trifluoromethyl)pyridin-2-yl)oxy)-N-(1,3,4-oxadiazol-2-yl)benzamide hydrochloride]: the pIC50 was over 6.52.

Regarding `NCc1cc(Oc2cccc(C(=O)N[C@H]3COCC[C@@H]3O)c2)nc(C(F)(F)F)c1` [Compound 1-208, 3-((4-(Aminomethyl)-6-(trifluoromethyl)pyridin-2-yl)oxy)-N-((3S,4S)-4-hydroxytetrahydro-2H-pyran-3-yl)benzamide hydrochloride], the pIC50 is over 6.52.

`NCc1cc(NC(=O)c2cccc(C(=O)O)c2)nc(C(F)(F)F)c1` [Compound 1-239, 3-((4-(Aminomethyl)-6-(trifluoromethyl)pyridin-2-yl)carbamoyl)benzoic acid trifluoroacetate]: the pIC50 is over 6.52.

Consider `NCc1cc(O[C@H]2CCCN(C(=O)c3cccnc3)C2)nc(C(F)(F)F)c1` [Compound 1-49, (S)-(3-((4-(Aminomethyl)-6-(trifluoromethyl)pyridin-2-yl)oxy)piperidin-1-yl)(pyridin-3-yl)methanone trifluoroacetate], for which the pIC50 was over 6.52.

Turning to `Cl.[2H]C([2H])(N)c1cc(Oc2cccc(C(=O)Nc3ccccc3)c2)nc(C(F)(F)F)c1` [Compound 1-8, 3-((4-(Aminomethyl-d2)-6-(trifluoromethyl)pyridin-2-yl)oxy)-N-phenylbenzamide hydrochloride], the pIC50 is over 6.52.

Turning to `NCc1cc(Oc2cccc(C(=O)N3CC[C@@H](O)C3)c2)nc(C(F)(F)F)c1` [Compound 1-18, (R)-(3-((4-(Aminomethyl)-6-(trifluoromethyl)pyridin-2-yl)oxy)phenyl)(3-hydroxypyrrolidin-1-yl)methanone hydrochloride], the negative-log IC50 (pIC50) was over 6.52.

Regarding `NCc1cc(Oc2cccc3c2ccn3CC(=O)N2CCNCC2)nc(C(F)(F)F)c1` [Compound 1-233, 2-(4-((4-(Aminomethyl)-6-(trifluoromethyl)pyridin-2-yl)oxy)-1H-indol-1-yl)-1-(piperazin-1-yl)ethan-1-one dihydrochloride], the pIC50 was 6.00 to 6.52.

Turning to `NCc1cc(Oc2ccnc(C(=O)Nc3ccccc3)c2)nc(C(F)(F)F)c1` [Compound 1-252, 4-((4-(Aminomethyl)-6-(trifluoromethyl)pyridin-2-yl)oxy)-N-phenylpicolinamide hydrochloride], the pIC50 is over 6.52.

As to `NCc1cc(Oc2cncc(C(=O)N3C[C@@H](O)[C@H](F)C3)c2)nc(C(F)(F)F)c1` (racemic) [Compound 1-55, Racemic-trans-(5-((4-(aminomethyl)-6-(trifluoromethyl)pyridin-2-yl)oxy)pyridin-3-yl)(-3-fluoro-4-hydroxypyrrolidin-1-yl)methanone hydrochloride], the pIC50 was over 6.52.

Source of the values: patent US11072585B2 (PharmAkea, Inc., priority 2015, dated 2021).
